Reference: patent US20130252983A1, “ACTIVATING PHOSPHORYLATION SITE ON GLUTAMINASE C” (CORNELL UNIVERSITY, priority 2010, published 2013)

Legend:
[1] = test system: NIH 3T3 cells stably expressing Cdc42(F28L), Rac(F28L), RhoC(F30L); experiment: Soft-agar colony formation of cells expressing activated Rho GTPase mutants; format: cell-based, mouse; settings: 10 μM, 14 days
Protocol: FIGS. 2A-G illustrate effects of 968 on the transforming activity of constitutively active Rho GTPases and human breast cancer cells. […] Cells were scored after 14 days and plotted as the percentage of the total number of colonies greater than 50 μm in diameter. Data represent the average of 3 experiments (±s.d.). […] Data represent the average of 3 experiments (±s.d.). […] Data represent the average of 3 experiments (±s.d.). […] After 24 hours at 37° C., the migratory cells were fixed, stained with GIEMSA, and counted. Data represent the average of 3 experiments (±s.d.). […] Data represent the average of 3 experiments (±s.d.). […] Data represent the average of 3 experiments (±s.d.). […] Data represent the average of 3 experiments (±s.d.).

GAC (S103A) = molecular target: T1, GAC (S103A) (Mus musculus, UniProt D3Z7P3, S103A); experiment: Glutaminase activity of immunoprecipitated GAC (S103A) from treated Dbl-transformed cells; format: cell-based; settings: 10 μM, 48 hours
T1 construct: expressed in transfected cells; host or cells: Dbl-transformed NIH 3T3 cells
T1 sequence (D3Z7P3 55-603 isoform D3Z7P3-2 S103A): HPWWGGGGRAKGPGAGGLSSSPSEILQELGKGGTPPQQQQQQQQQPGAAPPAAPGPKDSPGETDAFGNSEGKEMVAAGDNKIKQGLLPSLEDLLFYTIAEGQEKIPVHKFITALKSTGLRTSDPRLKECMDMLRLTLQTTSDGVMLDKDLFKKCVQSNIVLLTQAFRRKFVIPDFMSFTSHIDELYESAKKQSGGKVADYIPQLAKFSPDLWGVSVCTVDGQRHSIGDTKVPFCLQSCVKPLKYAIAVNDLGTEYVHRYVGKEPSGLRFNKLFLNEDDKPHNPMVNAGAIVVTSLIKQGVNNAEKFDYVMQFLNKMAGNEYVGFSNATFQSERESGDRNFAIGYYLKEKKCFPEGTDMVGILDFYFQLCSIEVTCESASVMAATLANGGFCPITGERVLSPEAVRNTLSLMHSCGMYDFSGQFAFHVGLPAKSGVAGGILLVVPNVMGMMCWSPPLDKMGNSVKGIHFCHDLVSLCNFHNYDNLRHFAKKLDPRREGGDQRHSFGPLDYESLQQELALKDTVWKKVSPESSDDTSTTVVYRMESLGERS
Protocol: Next the effect of the substitution of an alanine for a serine at amino acid 103 on the enzymatic activity of GAC was examined, as well as its sensitivity to the small molecule, 968. […] Following transfection, the cells were treated for 48 hours with 968 (10 μM) and then harvested. The different GAC proteins were then isolated by immunoprecipitation and assayed for their glutaminase activity in the absence (i.e., basal activity) and presence of phosphate (FIG. 24). […] Initially, the high glutaminase activity of the GAC (S103A) mutant was surprising as it had been predicted that this phospho-defective mutant should have a reduced enzymatic activity. […] When this hydrogen bond is broken, either by mutating the serine to an alanine or upon the phosphorylation of this serine residue, GAC transitions to an active conformation. […] Thus, Serine 103 plays a critical role in the regulation of the glutaminase activity of GAC.

[2] = test system: GA activity of SKBR3 cells; experiment: GA activity in mitochondrial fractions of treated SKBR3 cells; format: cell-based, human; settings: 10 μM, 48 hours
Protocol: 100%=620 moles of glutamine hydrolyzed per minute per mole of enzyme. Data represent the average of 3 experiments (±s.d.). […] Following precipitation of the beads and re-suspension, the samples were analyzed by Western blotting with anti-V5 antibody. […] Data represent the average of 3 experiments (±s.d.). […] Data represent the average of 3 experiments (±s.d.). […] Data represent the average of 3 experiments (±s.d.). FIG. 3E NIH 3T3 cells transiently expressing Dbl were assayed for focus formation in the presence of 10 μM 968 alone or together with 7 mM dimethyl α-ketoglutarate. […] 100%=680 nM glutamine hydrolyzed per minute per 10^5 cells. Data are the average of 3 experiments (±s.d.). […] 100%=750 nM glutamine hydrolyzed per minute per 10^5 cells. Data represent the average of 3 experiments (±s.d.).
FIGS. 4A-E illustrate the role of glutaminase C activity in cellular transformation. […] Data represent the average of 3 experiments (±s.d.). […] Data represent the average of 3 experiments (±s.d.). […] 100% represents the activity measured in untreated Dbl-transformed cells. The data represent the average of 2 experiments. […] 100% represents the activity measured in untreated SKBR3 cells. The data represent the average of 2 experiments. […] Data represent the average of 3 experiments (±s.d.).
FIGS. 11A-E illustrate the effects of different treatments on GA activity. […] The addition of Pi stimulated the GA activity in control 3T3 cells, Dbl-expressing cells, and Cdc42(F28L)-expressing cells by ˜6-fold, 2-fold, and 3-fold, respectively. 100% represents the Pi-stimulated activity measured for Dbl-transformed cells that were not treated with 968. Data is the average of 3 experiments (±s.d.). […] The addition of Pi stimulated the GA activity of HMECs, MDA-MB231 cells, and SKBR3 cells by ˜5-fold, 2-fold, and 1.4-fold, respectively. […] The data are plotted as the percentage of GA activity measured for untreated SKBR3 cells and represent the average of 2 experiments. […] 100% represents the Pi-stimulated activity measured for untreated Dbl-transformed cells. […]

With CN(C)c1ccc(C2Nc3ccc4ccccc4c3C3=C2C(=O)CC(C)(C)C3)cc1Br (stereo not drawn) [Compound 968, 5-[3-bromo-4-(dimethylamino)phenyl]-2,2-dimethyl-2,3,5,6-tetrahydrobenzo[a]] the “colony formation in soft-agar” value [1] was “blocking their ability”, the “glutaminase activity of GAC (S103A)” value (GAC (S103A)) was “not affected” and the “basal GA activity” value [2] was “sensitive to 968”.
